# Test results as given in publication PMC3335016, “Analysis of the Nse3/MAGE-Binding Domain of the Nse4/EID Family Proteins” (PLoS ONE, 2012).
# Where no end group is shown, it is not given here. The star is where a group is joined. Biotin = O=C1N[C@H]2[C@H](CS[C@H]2CCCCC(=O)*)N1
# T1: His-S-MAGEC2(129-339) (human, UniProt Q9UBF1 129-339)
# T1 construct: source: E. coli C41, purified (His-TRAP column, FPLC)
# T1 sequence (looked up): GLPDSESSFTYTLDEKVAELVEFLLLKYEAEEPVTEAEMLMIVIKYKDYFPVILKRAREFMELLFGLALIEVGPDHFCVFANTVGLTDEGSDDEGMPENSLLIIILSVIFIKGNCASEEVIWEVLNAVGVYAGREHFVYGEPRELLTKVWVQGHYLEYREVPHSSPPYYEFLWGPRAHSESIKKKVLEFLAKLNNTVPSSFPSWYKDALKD
# Legend:
# necdin (aa 1-321) = test: Pull-down of biotin-tagged EID2 peptides on streptavidin-agarose beads; assay type: binding, human; conditions: in vitro translated necdin, 2 h at 4°C in PBS, SDS-PAGE, phosphorimaging
# Procedure: Biotin-tagged EID2 peptides were preincubated overnight with streptavidin-agarose beads (Thermo Scientfic) at 4°C. The beads were washed 2 times with 0.1% Tween 20 in PBS buffer, then in vitro-expressed proteins in a total volume of 200 µl PBS buffer were added and incubated for 2 h at 4°C. The beads were washed 4 times with 0.1% Tween 20 in PBS buffer and the bound proteins were eluted in SDS sample buffer and boiled. Input, unbound, and bound fractions of the in vitro expressed proteins were separated by SDS-PAGE and analyzed by phosphorimaging (FLA-7000, Fujifilm). The bound fractions were analyzed by dot blotting to ensure equal EID2 peptide levels were used in pull down assays (data not shown).
# MAGEC2(129-339) protein = test: PEPSCAN ELISA of EID2 mutant peptides; assay type: binding, human; conditions: His-S-MAGEC2(129-339) 200-400 nM, 450 nm; for binding affinity to MAGEC2 relative to wild-type peptide: biotinylated peptide 400 nM on streptavidin-coated plates, 4°C overnight, anti-His/peroxidase, TMB, mean of 3 independent measurements, background = His-hTRF2 control; for binding affinity to MAGEC2 compared with wild-type peptide (in words): biotinylated peptide 400 nM, 3 independent measurements
# Procedure: A peptide library of the alanine mutant peptides (Table 1) of the aa 197-217 region of the human EID2 protein was obtained from Mimotopes (Australia). The library was linked to biotin via an additional peptide spacer of serine–glycine–serine–glycine. Each well on ELISA 96-well plates was coated with 100 µl of 5 µg/ml streptavidin (Sigma), incubated overnight at 37°C and then blocked with 3% bovine serum albumin (BSA) in PBS for 2 h at room temperature. The biotinylated peptides (400 nM, in PBS with 0.1% BSA) were applied into wells to saturate their surface and incubated at room temperature for 1 h. The plates were washed three times with 0.1% Tween 20 in PBS and then His-S-MAGEC2(129-339) protein was added (200–400 nM). Plates were incubated at 4°C overnight before washing (as above) to remove unbound protein. First anti-His antibody (Sigma; diluted 1/1000 in PBS with 1% BSA) was incubated for 2 h, washed three times and secondary peroxidase-conjugated rabbit-antiserum against mouse immunoglobulins (DAKO; diluted 1/1000 in PBS with 1% BSA) was added for 1 h (at 4°C). Peroxidase enzyme activity was measured with tetramethylbenzidine and the results were monitored using an automatic ELISA plate reader at a wavelength 450 nm.
# His-S-MAGEC2(129-339) = biological target: T1, His-S-MAGEC2(129-339); test: ELISA; PEPSCAN ELISA; biotinylated EID2 peptides (400 nM) on streptavidin-coated plates; His-S-MAGEC2(129-339) 200–400 nM, 4°C overnight; anti-His detection; conditions: both partners purified
Molecule,binding affinity to MAGEC2 relative to wild-type peptide (MAGEC2(129-339) protein),binding result (His-S-MAGEC2(129-339)),other results
"ARNPHRVDLDILTFTIALTAS [peptide #1, EID2 alanine mutant peptide Q197A]",~30 % of WT affinity,,"binding of necdin to peptide (pull-down, in words) (necdin (aa 1-321)): comparable to the wild-type peptide; binding affinity to MAGEC2 compared with wild-type peptide (in words) (MAGEC2(129-339) protein): significantly reduced"
"QANPHRVDLDILTFTIALTAS [peptide #2, EID2 alanine mutant peptide R198A]",< 20 % of WT affinity,,"binding of necdin to peptide (pull-down, in words) (necdin (aa 1-321)): comparable to the wild-type peptide; binding affinity to MAGEC2 compared with wild-type peptide (in words) (MAGEC2(129-339) protein): significantly reduced"
"QRNPHAVDLDILTFTIALTAS [peptide #6, EID2 alanine mutant peptide R202A]",< 20 % of WT affinity,,
"QRNPHRVALDILTFTIALTAS [peptide #8, EID2 alanine mutant peptide D204A]",,,binding affinity to MAGEC2 compared with wild-type peptide (in words) (MAGEC2(129-339) protein): comparable to that of the wild-type peptide
"QRNPHRVDADILTFTIALTAS [peptide #9, EID2 alanine mutant peptide L205A]",~30 % of WT affinity,,
"QRNPHRVDLAILTFTIALTAS [peptide #10, EID2 alanine mutant peptide D206A]",~30 % of WT affinity,,
"QRNPHRVDLDALTFTIALTAS [peptide #11, EID2 alanine mutant peptide I207A]",~30 % of WT affinity,,
"QRNPHRVDLDIATFTIALTAS [peptide #12, EID2 alanine mutant peptide L208A]",~30 % of WT affinity,,
"QRNPHRVDLDILTATIALTAS [peptide #14, EID2 alanine mutant peptide F210A]",< 20 % of WT affinity,,"binding of necdin to peptide (pull-down, in words) (necdin (aa 1-321)): significantly reduced"
"QRNPHRVDLDILTFTAALTAS [peptide #16, EID2 alanine mutant peptide I212A]",< 20 % of WT affinity,,"binding of necdin to peptide (pull-down, in words) (necdin (aa 1-321)): significantly reduced"
"QRNPHRVDLDILTFTIAATAS [peptide #17, EID2 alanine mutant peptide L214A]",< 20 % of WT affinity,,
"QRNPHRVDLDILTFTIALAAS [peptide #18, EID2 alanine mutant peptide T215A]",~30 % of WT affinity,,
"QRNPHRVDLDILTFTIALTAA [peptide #19, EID2 alanine mutant peptide S217A]",~30 % of WT affinity,,
Biotin-SGSGQRNPHRADLDILTFTIALTAS (source: synthetic peptide (Mimotopes)) [EID2 peptide #7],,binds,
Biotin-SGSGQRNPARVDLDILTFTIALTAS (source: synthetic peptide (Mimotopes)) [EID2 peptide #5],,binds,
Biotin-SGSGQRNPHRVDLDILAFTIALTAS (source: synthetic peptide (Mimotopes)) [EID2 peptide #13],,binds,
Biotin-SGSGQRNPHRVDLDILTFAIALTAS (source: synthetic peptide (Mimotopes)) [EID2 peptide #15],,binds,
"Biotin-SGSGQRNPHRVDLDILTFTIALTAS (also called wild-type peptide; long EID2 peptide; source: synthetic peptide (Mimotopes); not shown: biotin-SGSG spacer, N-terminal, kept) [EID2 WT peptide (aa 197-217)]",,binds,
Biotin-SGSGQRNAHRVDLDILTFTIALTAS (source: synthetic peptide (Mimotopes)) [EID2 peptide #4],,binds,
Biotin-SGSGQRNPHRVALDILTFTIALTAS (source: synthetic peptide (Mimotopes)) [EID2 peptide #8 (D204A)],,binds,
Biotin-SGSGQRAPHRVDLDILTFTIALTAS (source: synthetic peptide (Mimotopes)) [EID2 peptide #3],,binds,
